Laboratory results as given in patent US20110136145A1, “METHODS FOR PROMOTING FUSION AND REPROGRAMMING OF SOMATIC CELLS” (THE JOHNS HOPKINS UNIVERSITY, priority 2008, published 2011).
“Also recorded” adds a separate entry of the source.

Target: T1, Jhdm2a (Homo sapiens, UniProt Q9Y4C1)
T1 construct: expressed in transfected cells; host or cells: 293T cells
T1 sequence (Q9Y4C1 1-1321): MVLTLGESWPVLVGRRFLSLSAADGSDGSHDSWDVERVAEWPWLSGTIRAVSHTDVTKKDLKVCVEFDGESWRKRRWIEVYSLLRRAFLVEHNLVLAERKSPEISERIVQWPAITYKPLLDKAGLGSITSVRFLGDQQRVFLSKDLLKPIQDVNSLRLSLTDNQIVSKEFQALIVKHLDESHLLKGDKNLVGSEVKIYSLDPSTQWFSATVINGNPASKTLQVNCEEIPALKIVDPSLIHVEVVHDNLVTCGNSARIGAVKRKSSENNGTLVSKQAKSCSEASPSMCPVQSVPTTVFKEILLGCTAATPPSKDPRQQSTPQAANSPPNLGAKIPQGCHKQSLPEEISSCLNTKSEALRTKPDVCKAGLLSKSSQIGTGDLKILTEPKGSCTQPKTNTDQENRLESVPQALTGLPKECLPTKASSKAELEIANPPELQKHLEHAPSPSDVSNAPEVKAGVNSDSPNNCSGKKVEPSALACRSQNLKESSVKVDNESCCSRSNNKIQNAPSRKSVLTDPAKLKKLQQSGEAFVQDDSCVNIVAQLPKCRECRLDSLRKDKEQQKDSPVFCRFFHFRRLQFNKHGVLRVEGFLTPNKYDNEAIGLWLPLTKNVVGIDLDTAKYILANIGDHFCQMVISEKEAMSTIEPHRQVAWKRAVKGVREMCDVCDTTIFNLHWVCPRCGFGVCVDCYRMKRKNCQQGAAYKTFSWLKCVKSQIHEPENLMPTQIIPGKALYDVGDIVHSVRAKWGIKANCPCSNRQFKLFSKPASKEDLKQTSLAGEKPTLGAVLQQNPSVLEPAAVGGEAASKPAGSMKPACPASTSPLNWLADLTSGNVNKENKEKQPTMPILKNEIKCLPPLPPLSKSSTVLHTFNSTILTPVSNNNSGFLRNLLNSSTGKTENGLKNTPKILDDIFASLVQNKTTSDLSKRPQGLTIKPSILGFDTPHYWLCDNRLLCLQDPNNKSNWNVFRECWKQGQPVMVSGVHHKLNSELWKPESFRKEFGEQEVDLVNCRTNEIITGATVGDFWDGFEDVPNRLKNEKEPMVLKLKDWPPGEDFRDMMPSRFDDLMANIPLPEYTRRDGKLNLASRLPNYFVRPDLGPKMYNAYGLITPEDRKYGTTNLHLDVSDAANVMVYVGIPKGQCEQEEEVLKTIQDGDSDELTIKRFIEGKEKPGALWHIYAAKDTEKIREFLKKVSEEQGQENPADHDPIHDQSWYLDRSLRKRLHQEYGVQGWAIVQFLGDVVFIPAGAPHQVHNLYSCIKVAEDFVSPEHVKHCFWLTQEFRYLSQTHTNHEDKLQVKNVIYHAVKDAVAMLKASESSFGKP
Assay: Immunolabeling assay of Jhdm2a-induced H3K9 demethylation in 293T cells
Type: cell-based
Settings: 10 μM; 293T cells transfected with Jhdm2a-EGFP; vs DMSO
Description: (A) Inhibition of Jhdm2a induced histone demethylation by DMOG. Blocking effects of DMOG on Jhdm2a were examined in 293T cells transfected with a plasmid expressing Jhdm2a-EGFP fusion protein. In control cells treated with DMSO, histone 3 lysine 9 dimethylation (H3K9diM) immunostaining signal was lost in Jhdm2a-GFP transfected cells (arrows). […] DAPI labels all cell nuclei. Scale bar: 20 μm. (B-D) show DMOG attenuates ESC-induced reactivation of Oct4 expression from adult NSCs. […] Representative plots from multiple experiments are shown (B). Reprogramming frequencies from multiple experiments were quantified (C) for fusion population with the 48-hour treatment of DMSO or DMOG. Data represent mean±SEM. (n=3; ** P<0.01, Student's t-test). Shown in (D) is the cumulative distribution plot of DsRed+ population with graded GFP fluorescence intensities for comparison of the reprogramming efficacy in the presence of DMSO or DMOG (n=3 experiments; * P<0.01, Kolmogorov-Smirnov test).
To confirm the blocking effects of DMOG on histone demethylases, an immuno labeling assay previously developed for JHDM2A was used. Overexpression of Jhdm2a in heterologous cell lines led to dramatic loss of H3K9 dimethylation, which was blocked by the DMOG treatment (10 μM FIG. 6A). […]

## COC(=O)CNC(=O)C(=O)OC [DMOG, dimethyloxalylglycine]
  Jhdm2a-induced loss of H3K9 dimethylation: blocked; also recorded: H3K9 dimethylation signals are present in all cells
